Results: publication PMC9791658 (Journal of Medicinal Chemistry, 2022)

Experiments:
14-3-3ζ/ERα_pT594 = 14-3-3ζ/ERα_pT594 (Homo sapiens, UniProt P03372+P63104); assay: Fluorescence polarization; assay type: binding; settings: FP assay
14-3-3ζ/GR_pT524 [1] = target: 14-3-3ζ/GR_pT524 (Homo sapiens, UniProt P04150+P63104); assay: Fluorescence polarization; assay type: binding; settings: for 14-3-3/GR PPI stabilization activity (in words): FP assay
Caco-2 cells = assay: Permeability across Caco-2 cell monolayers; assay type: in vitro ADME; settings: for permeability classification: Caco-2; for increase of permeability vs 1: Caco-2 Papp(A to B) relative to compound 1
14-3-3ζ/GR_pT524 [2] = target: T1, 14-3-3ζ/GR_pT524 (Homo sapiens, UniProt P63104); assay: SPR assay of GR_pT524 with 14-3-3ζ in the absence and presence of FC-A; assay type: binding; settings: FC-A 1 mM
T1 sequence (P63104 1-245): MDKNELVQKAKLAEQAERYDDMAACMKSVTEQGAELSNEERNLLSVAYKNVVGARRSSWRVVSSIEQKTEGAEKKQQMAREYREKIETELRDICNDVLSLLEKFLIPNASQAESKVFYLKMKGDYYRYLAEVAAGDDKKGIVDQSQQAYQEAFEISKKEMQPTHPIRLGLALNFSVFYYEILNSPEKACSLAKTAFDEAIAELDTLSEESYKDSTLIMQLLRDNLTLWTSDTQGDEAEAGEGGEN

| SMILES | 14-3-3/ERα PPI stabilization activity (in words) (14-3-3ζ/ERα_pT594) | 14-3-3/GR PPI stabilization activity (in words) (14-3-3ζ/GR_pT524 [1]) | other results |
| --- | --- | --- | --- |
| O=C(O)c1cc(N2C(=O)C(O)=C(c3ccccc3)C2c2ccc([N+](=O)[O-])cc2)ccc1O (single isomer, unassigned; (+)) [(+)-28, 2-Hydroxy-5-(3-hydroxy-5-(4-nitrophenyl)-2-oxo-4-phenyl-2,5-dihydro-1H-pyrrol-1-yl) benzoic Acid] | no 14-3-3/ERα PPI stabilization activity | – | – |
| O=C(O)c1cc(N2C(=O)C(O)=C(c3ccccc3)C2c2ccc([N+](=O)[O-])cc2)ccc1O (single isomer, unassigned; (-)) [(−)-28, 2-Hydroxy-5-(3-hydroxy-5-(4-nitrophenyl)-2-oxo-4-phenyl-2,5-dihydro-1H-pyrrol-1-yl) benzoic Acid] | no 14-3-3/ERα PPI stabilization activity | – | – |
| O=C(C1=C(O)C(=O)N(c2ccc(O)c(C(=O)O)c2)[C@H]1c1ccc([N+](=O)[O-])cc1)c1ccccc1 [(S)-1, 5-(3-Benzoyl-4-hydroxy-2-(4-nitrophenyl)-5-oxo-2,5-dihydro-1H-pyrrol-1-yl)-2-hydroxybenzoic Acid] | completely inactive | – | – |
| O=C(C1=C(O)C(=O)N(c2ccc(O)c(C(=O)O)c2)C1c1ccc([N+](=O)[O-])cc1)c1ccccc1 (centres unmarked) [Compound 1, 5-(3-Benzoyl-4-hydroxy-2-(4-nitrophenyl)-5-oxo-2,5-dihydro-1H-pyrrol-1-yl)-2-hydroxybenzoic Acid] | – | – | decrease in potency for 14-3-3/GR compared to 14-3-3/ERα (14-3-3ζ/GR_pT524 [1]; from EC1.2 values): approximately 2 fold; permeability classification (Caco-2 cells): low permeability |
| Nc1ccc(C2C(C(=O)c3ccccc3)=C(O)C(=O)N2c2ccc(O)c(C(=O)O)c2)cc1 (centres unmarked) [Compound 17, 5-(2-(4-Aminophenyl)-3-benzoyl-4-hydroxy-5-oxo-2,5-dihydro-1H-pyrrol-1-yl)-2-hydroxybenzoic Acid] | loss of measurable activity | loss of measurable activity | – |
| O=C(C1=C(O)C(=O)N(c2ccc(O)c(C(=O)O)c2)C1c1ccc([N+](=O)[O-])cc1)c1cccc(OC(F)F)c1 (centres unmarked) [Compound 19, 5-(3-(3-(Difluoromethoxy)benzoyl)-4-hydroxy-2-(4-nitrophenyl)-5-oxo-2,5-dihydro-1H-pyrrol-1-yl)-2-hydroxybenzoic Acid] | abolished activity | abolished activity | – |
| O=C(C1=C(O)C(=O)N(c2ccc(O)c(C(=O)O)c2)C1c1ccccc1)c1ccccc1 (centres unmarked) [Compound 21, 5-(3-Benzoyl-4-hydroxy-5-oxo-2-phenyl-2,5-dihydro-1H-pyrrol-1-yl)-2-hydroxybenzoic Acid] | loss of measurable activity | loss of measurable activity | – |
| O=C(C1=C(O)C(=O)N(c2ccc(O)cc2)C1c1ccc([N+](=O)[O-])cc1)c1ccccc1 (centres unmarked) [Compound 22, 4-Benzoyl-3-hydroxy-1-(4-hydroxyphenyl)-5-(4-nitrophenyl)-1,5-dihydro-2H-pyrrol-2-one] | – | only marginal activity | permeability classification (Caco-2 cells): medium permeability; increase of permeability vs 1 (Caco-2 cells): 3 fold |
| O=C(C1=C(O)C(=O)N(c2ccccc2O)C1c1ccc([N+](=O)[O-])cc1)c1ccccc1 (centres unmarked) [Compound 23, 4-Benzoyl-3-hydroxy-1-(2-hydroxyphenyl)-5-(4-nitrophenyl)-1,5-dihydro-2H-pyrrol-2-one] | – | only marginal activity | permeability classification (Caco-2 cells): medium permeability; increase of permeability vs 1 (Caco-2 cells): 5 fold |
| O=C(O)c1cc(N2C(=O)C(O)=C(c3ccccc3)C2c2ccc([N+](=O)[O-])cc2)ccc1O (centres unmarked) [Compound 28, 2-Hydroxy-5-(3-hydroxy-5-(4-nitrophenyl)-2-oxo-4-phenyl-2,5-dihydro-1H-pyrrol-1-yl) benzoic Acid] | inactive | – | – |
| C=CC(C)(C)OC[C@H]1O[C@H](O[C@@H]2C3=C([C@H](C)COC(C)=O)C[C@H](O)[C@]3(C)/C=C3/[C@@H](COC)CC[C@H]3[C@@H](C)[C@H]2O)[C@H](O)[C@@H](O)[C@@H]1O [FC-A, Fusicoccin A, reference compound] | – | does not stabilize | effect on the interaction between GR_pT524 and 14-3-3ζ (SPR) (14-3-3ζ/GR_pT524 [2]): does not stabilize |
